Values quoted from earlier work as cited in US7314641B1, “High-bioavailability particle coated with fungicide and polymer” (Everest Pharm. Industrial Co., Ltd., priority 2007, dated 2008).

Columns and labels:
[1] = prior art statement on the compound of U.S. Pat. No. 4,267,179

CCC(C)n1ncn(-c2ccc(N3CCN(c4ccc(OCC5COC(Cn6cncn6)(c6ccc(Cl)cc6Cl)O5)cc4)CC3)cc2)c1=O (single isomer, unassigned; (+)) [itraconazole, (+)-cis-4-[4-[4-[-4[[2-(2,4-dichlorophenyl)-2-(1H-1,2,4-triazol-1-ylmethyl)-1,3-dioxolan-4-yl]methoxy]phenyl]-1-piperazinyl]phenyl-2,4-dihydro-2-1(1-methylpropyl)-3H-1,2,4-triazol-3-one]
Metabolic period in human beings: 96 h | water solubility [1]: not water soluble
